# Assay results published in patent publication US9457044B2, “Methods and compositions for wound healing” (CoDa Therapeutics, Inc., priority 2006, dated 2016).
# Legend:
# hydroxyproline = assay: Hydroxyproline analysis of collagen content of wound area; parameters: species or system mice; details: mouse, in vivo
# Method: Male, 8 week old, ICR mice were used in the following experiments. All the mice were kept under specific pathogen-free conditions in an environmentally controlled clean room at University College London and all the experiments were carried out under UK Home Office regulations. Mice were anaesthetized by halothane inhalation. Four full-thickness excisional wounds of 6 mm diameter were made on the shaved back on either side of the dorsal midline with a 6 mm biopsy punch (Kai Industries). To each pair of wounds a single topical application of 50 μl of 1 μM Cx43 as ODN (SEQ. ID No. 2) (Sigma-Genosys) in 30% Pluronic F-127 gel (Sigma-Aldrich), chilled on ice, was made to one wound, and an identical application of 1 μM sense control sODNs was made to the other. […] R. and Becker, D. L. (2003). […] Each wound region was digitally photographed at the indicated time intervals, and the areas of the wounds were calculated. All wound areas were expressed as percentages of the initial wound areas. […]
# The collagen content of the wound area was assessed by determining the amount of hydroxyproline (HP), a major component of collagen. […] Concentrations of protein were measured using a BCA™ Protein Assay Kit (PIERCE Biotechnology Inc.), and the amounts of HP were determined with Sircol™ Soluble Collagen Assay Kit (Biocolor Ltd.). The data were expressed as amounts of HP/total protein (ng/μg) for each sample.
# granulation tissue = assay: Granulation tissue area (H&E); format: in vivo, mice
# Method: (§1) Male, 8 week old, ICR mice were used in the following experiments. All the mice were kept under specific pathogen-free conditions in an environmentally controlled clean room at University College London and all the experiments were carried out under UK Home Office regulations. Mice were anaesthetized by halothane inhalation. Four full-thickness excisional wounds of 6 mm diameter were made on the shaved back on either side of the dorsal midline with a 6 mm biopsy punch (Kai Industries). To each pair of wounds a single topical application of 50 μl of 1 μM Cx43 as ODN (SEQ. ID No. 2) (Sigma-Genosys) in 30% Pluronic F-127 gel (Sigma-Aldrich), chilled on ice, was made to one wound, and an identical application of 1 μM sense control sODNs was made to the other. […] R. and Becker, D. L. (2003). Targeting connexin 43 expression accelerates the rate of wound repair. Curr Biol 13, 1697-703). Each wound region was digitally photographed at the indicated time intervals, and the areas of the wounds were calculated. All wound areas were expressed as percentages of the initial wound areas. In some series of experiments, wounds and their surrounding area, including the scab and epithelial margins, were harvested with an 8 mm biopsy punch (Kai Industries) at the indicated time intervals after mice were killed with an overdose of chloroform. A minimum of eight mice were used for each time point examined. […]
# [1] = tested on: human limbal epithelial cells; assay: Human limbal rim-denuded pig stromal matrix chimera re-epithelialisation; format: cell-based; details: treated at day one; controls 7 to 14 days
# Method: Human limbal rims returned from surgery after excision of the central corneas for keratoplasty (transplant) were placed into air liquid interface organotypic culture and a denuded pig stromal extracellular matrix inserted into the central region (FIG. 14). The pig stromal matrix was denuded (cells removed) by freeze-thawing in liquid nitrogen.
# The chimeras were grown for up to 2 weeks at which time the human limbal epithelial cells have re-epithelialised the pig stroma with a normal 5-7 cell layer fully differentiated epithelium. In addition, human limbal stromal keratocytes have proliferated and migrated across the limbal rim—stromal insert to repopulate the pig stromal matrix with human keratocytes.
# In a further experiment the chimeras were treated with connexin 43 specific antisense ODNs at day one.
# Ccl2 mRNA = assay: Real-Time PCR of Ccl2 at wound sites; format: in vivo, mice; details: day 2; P<0.05 versus control sODN
# Method: (§2) Male, 8 week old, ICR mice were used in the following experiments. All the mice were kept under specific pathogen-free conditions in an environmentally controlled clean room at University College London and all the experiments were carried out under UK Home Office regulations. Mice were anaesthetized by halothane inhalation. Four full-thickness excisional wounds of 6 mm diameter were made on the shaved back on either side of the dorsal midline with a 6 mm biopsy punch (Kai Industries). To each pair of wounds a single topical application of 50 μl of 1 μM Cx43 as ODN (SEQ. ID No. 2) (Sigma-Genosys) in 30% Pluronic F-127 gel (Sigma-Aldrich), chilled on ice, was made to one wound, and an identical application of 1 μM sense control sODNs was made to the other. […] R. and Becker, D. L. (2003). Targeting connexin 43 expression accelerates the rate of wound repair. Curr Biol 13, 1697-703). Each wound region was digitally photographed at the indicated time intervals, and the areas of the wounds were calculated. All wound areas were expressed as percentages of the initial wound areas. […]
# Gene specific primers and probe were obtained as TaqMan® Gene Expression Assays (Applied Biosystems) for Cx43, Ccl2, Co1α1, TNFα and TGFβ1. […] Each sample was analyzed in duplicate. […]
# TGF-β1 = assay: Immunostaining for TGF-β1 at wound sites; format: in vivo, mice; details: 2 days
# Method: as §1
# [2] = tested on: F4/80-positive macrophages; assay: Macrophage recruitment into wound site (F4/80 immunohistochemistry); format: in vivo, mice
# Method: as §2
# A treatment-blinded observer counted MPO-positive neutrophils and F4/80-positive macrophages in the wound bed (defined as the area surrounded by unwounded skin, fascia, regenerated epidermis, and eschar) in 3 random high-power fields of 0.332 mm^2. […]
sequence,measurement,setting,value
"GTAATTGCGGCAGGAGGAATTGTTTCTGTC (antisense GTAATTGCGGCAGGAGGAATTGTTTCTGTC; in Pluronic F-127 gel, further chemistry not given here) [Cx43 asODN]",hydroxyproline in treated wounds,hydroxyproline,increased
same,granulation tissue area versus untreated tissue,"granulation tissue; day 5, difference not significant",slightly smaller
same,granulation tissue area versus control sODN treated wounds,"granulation tissue; days 7, 10 and 14 after wounding",significantly (*P<0.05; **P<0.01) smaller
same,time to full epithelial covering of the pig stroma,[1],≤ 3 days
same,expression level of Ccl2 mRNA,Ccl2 mRNA,significantly reduced
same,TGF-β1 positive elongated fibroblast-like cells at the dermal margins of the wound,TGF-β1,an additional TGF-β1 positive cell type could be seen in large numbers
same,TGF-β1 staining in the epidermis versus control wound epidermis,TGF-β1,much more strongly
same,reduction of number of macrophages versus control sODN-treated wounds,[2]; day 2,33%
same,reduction of number of macrophages versus control sODN-treated wounds,[2]; day 7,32%
